Each structure is given as a SMILES string.

For the assay, the target named is EGFR del19 T790M C797S (Homo sapiens, UniProt P00533, C797S/T790M, form not given). Nature of the assay: pEGFR assay: phosphorylation of EGFR at Tyr1068 in Ba/F3 cells (AlphaScreen Surefire). In kind it is cell-based. As to conditions: 4 h. Here is the method: Transduced cells were selected using puromycin. Following selection, IL-3 was withdrawn and IL-3 independent cells cultured. p-EGFR Tyr1068 was determined using the AlphaScreen Surefire pEGF Receptor (Tyr1068) Assay (PerkinElmer, TGRERS). […] Subsequently, 60.000 cells/well in 60 μL were added. Cells were incubated with compound for 4 h at 37° C. […] The mixture was incubated at room temperature with shaking (700 rpm) for 20 min. After centrifugation, 4 μL of the lysate were transferred to Proxiplates. […] Plates were shaken for 1 min (1400 rpm) and incubated for 2 h at room temperature in the dark.
EGFR del19 T790M C797S, sequence (P00533 25-1210 T790M/C797S limits assumed, form open): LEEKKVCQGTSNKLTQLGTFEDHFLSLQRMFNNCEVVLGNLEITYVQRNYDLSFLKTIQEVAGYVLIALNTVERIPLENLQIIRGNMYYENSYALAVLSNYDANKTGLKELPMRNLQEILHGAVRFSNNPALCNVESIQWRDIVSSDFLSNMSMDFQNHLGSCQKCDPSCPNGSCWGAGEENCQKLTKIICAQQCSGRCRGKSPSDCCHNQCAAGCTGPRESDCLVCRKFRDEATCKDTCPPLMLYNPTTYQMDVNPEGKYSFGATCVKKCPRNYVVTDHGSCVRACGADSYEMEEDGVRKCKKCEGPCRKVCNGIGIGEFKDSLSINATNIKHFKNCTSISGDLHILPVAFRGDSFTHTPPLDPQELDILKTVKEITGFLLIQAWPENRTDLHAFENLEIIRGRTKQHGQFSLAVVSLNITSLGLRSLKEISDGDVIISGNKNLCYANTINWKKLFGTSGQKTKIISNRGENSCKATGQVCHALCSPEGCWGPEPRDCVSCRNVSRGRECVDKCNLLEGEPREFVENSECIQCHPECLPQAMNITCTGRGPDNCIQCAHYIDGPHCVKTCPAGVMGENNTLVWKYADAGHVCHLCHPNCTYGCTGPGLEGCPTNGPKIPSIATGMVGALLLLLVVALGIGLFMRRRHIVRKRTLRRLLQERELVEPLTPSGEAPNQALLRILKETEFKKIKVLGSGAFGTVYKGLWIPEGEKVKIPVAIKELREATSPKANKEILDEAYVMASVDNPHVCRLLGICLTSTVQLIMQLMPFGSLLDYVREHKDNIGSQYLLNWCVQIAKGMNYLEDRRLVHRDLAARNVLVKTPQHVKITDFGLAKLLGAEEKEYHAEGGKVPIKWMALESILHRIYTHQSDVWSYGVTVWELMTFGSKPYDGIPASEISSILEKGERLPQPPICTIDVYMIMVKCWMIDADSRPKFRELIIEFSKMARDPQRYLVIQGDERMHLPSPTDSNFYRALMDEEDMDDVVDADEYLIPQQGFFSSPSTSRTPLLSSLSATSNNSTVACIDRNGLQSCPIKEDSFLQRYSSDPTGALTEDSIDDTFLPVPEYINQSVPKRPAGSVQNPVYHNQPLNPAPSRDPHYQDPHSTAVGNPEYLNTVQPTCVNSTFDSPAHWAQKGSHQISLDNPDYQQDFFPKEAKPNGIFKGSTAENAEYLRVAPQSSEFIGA
(In general: In Alpha technology, singlet oxygen from a donor bead excites a nearby acceptor bead.)
In general, IC50 refers to the concentration that gives 50% inhibition. A lower IC50 goes with greater potency in that assay. For the compound `Cc1cc2cc(n1)-c1cnn(C)c1OCCCCCCN1/C(=N/C2=O)Nc2ccccc21` [Compound I-002], half-maximal inhibition (IC50) required 4.2 nM. Turning to `C[C@@H]1CCCOc2c(cnn2C)-c2cc(cc(C#N)n2)C(=O)/N=C2\Nc3ccccc3N2C1` [Compound I-004], the IC50 is 1.3 nM. In the case of `Cc1cc2cc(n1)-c1cnn(C)c1OCC[C@@H]1CC[C@@H](C1)N1/C(=N/C2=O)Nc2ccccc21` [Compound I-006] it was 17 nM; in that of `Cc1cc2cc(n1)-c1cnn(C)c1OCCC[C@@H](O)CN1/C(=N/C2=O)Nc2ccccc21` [Compound I-007], 1.1 nM; in that of `Cc1cc2cc(n1)-c1cnn(C)c1OCCC[C@H](O)CN1/C(=N/C2=O)Nc2ccccc21` [Compound I-008], 7.4 nM. Regarding `Cc1cc2cc(n1)-c1cnn(C)c1OCC[C@H](O)CCN1/C(=N/C2=O)Nc2ccccc21` [Compound I-009], the concentration for half-maximal inhibition (IC50) amounted to 1 nM. As for `Cc1cc2cc(n1)-c1cnn(C)c1OCCC(O)CCN1/C(=N/C2=O)Nc2ccccc21` (stereo not shown) [Compound I-010], half-maximal inhibition (IC50) was put at 1.2 nM. Consider `Cc1cc2cc(n1)-c1cnn(C)c1OCC[C@@H](O)CCN1/C(=N/C2=O)Nc2ccccc21` [Compound I-011], for which inhibition was half-maximal at 6.5 nM (IC50).

On to `Cn1ncc2c1OCCC(O)CCN1/C(=N/C(=O)c3cc(Cl)nc-2c3)Nc2ccccc21` (stereo not shown) [Compound I-012], for which the IC50 came out at 5.2 nM. The compound `Cc1cc2cc(n1)-c1cnn(C)c1OC[C@@H](O)C[C@@H](C)CN1/C(=N/C2=O)Nc2ccccc21` [Compound I-013] gave an IC50 of 0.7 nM.

`Cc1cc2cc(n1)-c1cnn(C)c1OC[C@H](O)C[C@@H](C)CN1/C(=N/C2=O)Nc2ccccc21` [Compound I-014] gave an IC50 of 4.2 nM. Turning to `Cc1cc2cc(n1)-c1cnn(C)c1OCC[C@H](O)[C@@H](C)CN1/C(=N/C2=O)Nc2ccccc21` [Compound I-015], the IC50 is 0.6 nM. The compound `Cc1cc2cc(n1)-c1cnn(C)c1OC[C@@H](C)[C@H](O)CCN1/C(=N/C2=O)Nc2ccccc21` [Compound I-016] came in with an IC50 of 0.8 nM. Regarding `Cc1cc2cc(n1)-c1cnn(C)c1OC[C@@H](C)[C@@H](O)CCN1/C(=N/C2=O)Nc2ccccc21` [Compound I-017], the IC50 was determined as 8.9 nM. The compound `Cc1cc2cc(n1)-c1cnn(C)c1OCCC[C@@H](C)CN1/C(=N/C2=O)Nc2ccc(OCCN3CCN(C)CC3)cc21` [Compound I-018] had an IC50 of 0.5 nM.

The compound `Cc1cc2cc(n1)-c1cnn(C)c1OCCC[C@@H](C)CN1/C(=N/C2=O)Nc2ccc(N3CCN(C)CC3)cc21` [Compound I-019] returned an IC50 of 0.6 nM. Compound `CC[C@@H]1CCCOc2c(cnn2C)-c2cc(cc(C)n2)C(=O)/N=C2\Nc3ccc(N4CCN(C)CC4)cc3N2C1` [Compound I-020] gave a half-maximal inhibitory concentration (IC50) of 0.6 nM. In the case of `C[C@@H]1CCCOc2c(cnn2C)-c2cc(cc(Cl)n2)C(=O)/N=C2\Nc3ccc(CN4CCN(C)CC4)cc3N2C1` [Compound I-022] it was 0.8 nM. For `C[C@@H]1CCCOc2c(cnn2C)-c2cc(cc(F)n2)C(=O)/N=C2\Nc3cn(C)nc3N2C1` [Compound I-023], the IC50 worked out at 0.5 nM. As to `Cc1cc2cc(n1)-c1cnn(C)c1OCCC[C@@H](C)CN1/C(=N/C2=O)Nc2cn(C)nc21` [Compound I-024], half-maximal inhibition (IC50) required 0.6 nM.

`Cc1cc2cc(n1)-c1cnn(C)c1OCCC[C@@H](C)CN1/C(=N/C2=O)Nc2cnn(C)c21` [Compound I-025] returned an IC50 of 0.8 nM. On to `C[C@@H]1CCCOc2c(cnn2C)-c2cc(cc(Cl)n2)C(=O)/N=C2\Nc3cn(C)nc3N2C1` [Compound I-026], for which 1.5 nM corresponded to half-maximal inhibition (IC50).

Take `C[C@@H]1C[C@H](O)COc2c(cnn2C)-c2cc(cc(Cl)n2)C(=O)/N=C2\Nc3cn(C)nc3N2C1` [Compound I-028]: 3.5 nM corresponded to half-maximal inhibition (IC50). The compound `C[C@@H]1CCCOc2c(cnn2C)-c2cc(cc(Cl)n2)C(=O)/N=C2\Nc3cnn(C)c3N2C1` [Compound I-029] registered an IC50 of 7.5 nM. `Cc1cc2cc(n1)-c1cnn(C)c1OCCC(O)CCN1/C(=N/C2=O)Nc2cnn(C)c21` (stereo not shown) [Compound I-030]: the IC50 worked out at 28 nM. In turn, `Cc1cc2cc(n1)-c1cnn(C)c1OC[C@@H](C)CCCN1/C(=N/C2=O)Nc2ccc(N3CCN(C)CC3)cc21` [Compound I-031] registered an IC50 of 0.5 nM. For the compound `Cc1cc2cc(n1)-c1cnn(C)c1OCCC[C@@H](C)CN1/C(=N/C2=O)Nc2ccc(N3CCOCC3)cc21` [Compound I-032], inhibition was half-maximal at 0.6 nM (IC50). With `Cc1cc2cc(n1)-c1cnn(C)c1OCCC[C@@H](C)CN1/C(=N/C2=O)Nc2cc(N3CCN(C)CC3)ccc21` [Compound I-033], the midpoint of inhibition, the IC50, lay at 0.6 nM. Compound `C[C@@H]1CCCOc2c(cnn2C)-c2cc(cc(F)n2)C(=O)/N=C2\Nc3ccccc3N2C1` [Compound I-034] came in with an IC50 of 0.7 nM. `Cc1cc2cc(n1)-c1cnn(C)c1OCCC[C@@H](C)CN1/C(=N/C2=O)Nc2ccc(CN(C)C)cc21` [Compound I-035] yielded a half-maximal inhibitory concentration (IC50) of 0.7 nM. `C[C@@H]1CCCOc2c(cnn2C)-c2cc(ccn2)C(=O)/N=C2\Nc3cnn(C)c3N2C1` [Compound I-036] displayed a half-inhibitory concentration (IC50) of 0.7 nM.

Take `Cc1cc2cc(n1)-c1cnn(C)c1OCCC[C@@H](C)CN1/C(=N/C2=O)Nc2ccc(C(=O)N(C)C)cc21` [Compound I-038]: the half-maximal inhibitory concentration (IC50) was found to be 1.3 nM. Compound `Cc1cc2cc(n1)-c1cnn(C)c1OCCC[C@@H](C)CN1/C(=N/C2=O)Nc2ccc(C(=O)N3CCN(C)CC3)cc21` [Compound I-039] displayed an IC50 of 1.6 nM.

Regarding `Cc1cc2cc(n1)-c1cnn(C)c1OC[C@@H](C)CCCN1/C(=N/C2=O)Nc2cnn(C)c21` [Compound I-040], the IC50 worked out at 1.7 nM. In the case of `COc1cccc2c1N1C[C@H](C)CCCOc3c(cnn3C)-c3cc(cc(C)n3)C(=O)/N=C/1N2` [Compound I-041], the IC50 was 1.9 nM. Consider `COC(=O)c1ccc2c(c1)N1C[C@H](C)CCCOc3c(cnn3C)-c3cc(cc(C)n3)C(=O)/N=C/1N2` [Compound I-042], for which the IC50 was determined as 2.3 nM. In the case of `Cc1cc2cc(n1)-c1cnn(C)c1OC[C@@H](C)CCCN1/C(=N/C2=O)Nc2cc(N3CCN(C)CC3)ccc21` [Compound I-043] it was 2.3 nM.

In turn, `C[C@@H]1CCCOc2c(cnn2C)-c2cc(ccn2)C(=O)/N=C2\Nc3cn(C)nc3N2C1` [Compound I-044] came in with an IC50 of 3.4 nM. `Cc1cc2cc(n1)-c1cnn(C)c1OCC[C@@H](O)[C@H](C)CN1/C(=N/C2=O)Nc2ccccc21` [Compound I-045] returned an IC50 of 3.6 nM. `O=C1/N=C2\Nc3ccccc3N2CCCCCOc2ccccc2-c2cc1ccn2` [Compound I-047] had an IC50 of 6.2 nM. In the case of `C[C@@H]1CCOc2ccccc2-c2cc(ccn2)C(=O)/N=C2\Nc3ccccc3N2CC1` [Compound I-048] it was 15 nM; in that of `Cc1cc2cc(n1)-c1ccccc1OCCCCCN1/C(=N/C2=O)Nc2ccccc21` [Compound I-049], 16 nM; in that of `CC1(C)CCCOc2ccccc2-c2cc(ccn2)C(=O)/N=C2\Nc3ccccc3N2C1` [Compound I-050], 17 nM.

For `C[C@H]1CCCOc2ccccc2-c2cc(ccn2)C(=O)/N=C2\Nc3ccccc3N2C1` [Compound I-051], the half-maximal inhibitory concentration (IC50) is 20 nM. In the case of `Cc1cc2cc(n1)-c1cnn(C)c1OCCCCCCCN1/C(=N/C2=O)Nc2ccccc21` [Compound I-052] it was 23 nM; in that of `O=C1/N=C2\Nc3ccccc3N2CCCCCOc2cc(F)ccc2-c2cc1ccn2` [Compound I-053], 24 nM.

The record behind these values is patent US12522615B2, “Macrocyclic compounds and derivatives as EGFR inhibitors” (Boehringer Ingelheim International GmbH, priority 2019, dated 2026).
